Experimental data reported in US8227508B2, “Dietary and pharmaceutical compositions containing carnosol and/or rosmanol and their uses” (DSM IP Assets B.V., priority 2006, dated 2012).

Key:
[1] = molecular target: T1, human noradrenaline transporter (hNAT) (Homo sapiens, UniProt P23975); assay: Noradrenaline uptake inhibition in MDCK cells expressing hNAT; type: cell-based
T1 construct: expressed in transfected cells; host or cells: MDCK
Method: Madin Darby canine kidney (MDCK) cells, stably expressing the human noradrenaline transporter (hNAT), were plated one day before the assay. […] Cells in each well were then rinsed twice, solubilised with 1% SDS lysis buffer and the lysate was analysed to determine [^3H]-noradrenaline uptake. […] Reduction of [^3H]-noradrenaline uptake by 50 percent or more (≧50%) relative to vehicle controls indicated significant inhibitory activity.

mouse [2] = assay: Marble burying test; type: in vivo; details: −30 min
Method: The method applied here follows that described by Broekkamp et al. (1986). Mice (n=15 per treatment group) were individually placed in transparent plastic cages (33×21×18 cm) with 5 cm of sawdust on the floor and 25 marbles (diameter 1 cm) grouped in the centre of the cage. A second, up-turned, cage served as a lid. The number of marbles covered by sawdust (by at least two-thirds) was counted at the end of the 30-min test period. Tests were performed by investigators blind to the drug treatment protocol.
Prior to testing, all test cages and marbles were “impregnated” by leaving 10 naive mice in each cage for 15 minutes.
Carnosol (3, 10 and 30 mg/kg) and rosmanol (10, 30 and 100 mg/kg) were administered i.p. 30 min before the test, and compared with a vehicle control group. Fluoxetine (32 mg/kg), administered under the same experimental conditions, was used as a reference substance.

[3] = molecular target: T2, human dopamine transporter (hDAT) (Homo sapiens, UniProt Q01959); assay: cell-based; details: transfected CHO-K1 cells, 50 nM [3H]-dopamine; read-out: IC50, inhibition of dopamine reuptake
T2 construct: expressed in transfected cells; host or cells: CHO-K1
T2 sequence (Q01959 whole entry): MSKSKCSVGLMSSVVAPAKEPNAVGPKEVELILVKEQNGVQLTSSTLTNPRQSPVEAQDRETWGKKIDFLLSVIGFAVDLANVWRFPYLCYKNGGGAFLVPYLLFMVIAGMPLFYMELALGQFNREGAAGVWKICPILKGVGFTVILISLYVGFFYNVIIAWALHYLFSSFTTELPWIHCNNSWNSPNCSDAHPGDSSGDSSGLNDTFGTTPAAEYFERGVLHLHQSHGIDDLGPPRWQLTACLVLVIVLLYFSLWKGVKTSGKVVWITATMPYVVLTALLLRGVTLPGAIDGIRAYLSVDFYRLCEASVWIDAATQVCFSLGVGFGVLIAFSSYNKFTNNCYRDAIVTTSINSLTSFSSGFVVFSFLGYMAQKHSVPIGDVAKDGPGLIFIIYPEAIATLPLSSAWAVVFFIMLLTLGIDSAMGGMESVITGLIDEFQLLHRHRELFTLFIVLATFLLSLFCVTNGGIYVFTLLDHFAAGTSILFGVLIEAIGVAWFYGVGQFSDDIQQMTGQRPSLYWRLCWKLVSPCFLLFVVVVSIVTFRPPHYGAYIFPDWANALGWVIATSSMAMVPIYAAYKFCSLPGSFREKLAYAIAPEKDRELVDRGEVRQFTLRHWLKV
Method: Specific signal was determined in the presence of 10 μM nomifensine (dopamine reuptake inhibitor). Cells were then solubilised with 1% SDS lysis buffer.

[4] = molecular target: T3, human glycine transporter 1b (GlyT1) (Homo sapiens, UniProt P48067); assay: Glycine uptake inhibition in CHO cells expressing GlyT1; type: cell-based; details: 60 nM [3H]-glycine
T3 construct: expressed in transfected cells; host or cells: CHO
T3 sequence (P48067 1-652 isoform P48067-3): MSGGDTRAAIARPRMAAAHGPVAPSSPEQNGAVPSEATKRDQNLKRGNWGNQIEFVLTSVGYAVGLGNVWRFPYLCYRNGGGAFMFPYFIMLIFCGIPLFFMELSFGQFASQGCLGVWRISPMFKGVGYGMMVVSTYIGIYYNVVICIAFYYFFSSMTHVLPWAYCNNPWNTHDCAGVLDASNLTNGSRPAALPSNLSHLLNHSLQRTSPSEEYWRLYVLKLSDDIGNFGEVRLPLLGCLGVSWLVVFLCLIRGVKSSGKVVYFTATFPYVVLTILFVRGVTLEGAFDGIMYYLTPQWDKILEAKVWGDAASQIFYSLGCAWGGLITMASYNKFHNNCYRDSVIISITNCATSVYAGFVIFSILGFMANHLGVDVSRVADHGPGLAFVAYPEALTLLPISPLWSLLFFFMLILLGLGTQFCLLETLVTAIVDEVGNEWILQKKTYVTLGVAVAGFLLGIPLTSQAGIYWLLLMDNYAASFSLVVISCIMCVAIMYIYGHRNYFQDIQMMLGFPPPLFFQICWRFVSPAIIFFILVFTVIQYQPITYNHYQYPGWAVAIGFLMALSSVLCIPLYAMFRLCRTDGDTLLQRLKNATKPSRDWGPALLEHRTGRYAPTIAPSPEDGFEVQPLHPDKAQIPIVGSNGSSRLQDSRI
Method: CHO cells stably expressing the human glycine transporter 1b cDNA (GlyT1) were routinely grown in Dulbecco's Modified Eagle's Medium (Invitrogen, Carlsbad, USA) containing 10% dialysed foetal calf serum, penicillin, streptomycin, proline and the antibiotic G418. Cells were harvested by trypsinisation one day prior to the assay and were seeded in the above mentioned medium. Immediately prior to the assay, the medium was replaced by uptake buffer containing 150 mM NaCl, 1 mM CaCl2, 2.5 mM KCl, 2.5 mM MgCl2, 10 mM Glucose and 10 mM N-2-hydroxyethylpiperazine-N′-2-ethanesulfonic acid (HEPES buffer).
Glycine uptake into the cells was determined by addition of 60 nM radiolabelled [^3H]-glycine (Amersham Biosciences GE Healthcare, Slough, UK) and incubation for 30 minutes at room temperature. Following removal of unincorporated label by gentle washing three times with the above buffer, incorporated glycine was quantified by liquid scintillation counting.

mouse [5] = assay: Porsolt's Forced Swim Test (FST); type: in vivo
Method: The Forced Swim Test (FST) was first reported in 1977 for screening of antidepressant-like compounds in rats (Porsolt et al 1977 Nature, 266:730-732) and, later, modified for testing mice (Porsolt et al 1977 Arch. Int. Pharmacodynamie, 229:327-336).
In two separate experiments, mice were tested following either i.p. or p.o. administration of carnosol. Mice were individually placed in a cylinder containing water (22° C.) from which they could not escape. The mice were placed in the water for 6 min and the duration of immobility during the last 4 min was measured. Ten to fifteen mice were studied per group. Carnosol was evaluated at 3, 10, 30 mg/kg body weight (i.p. 30 min before the test) or 200, 400, 600 mg/kg body weight (p.o., 24, 5 and 1 h before the test), and compared with vehicle control groups. Imipramine (32 mg/kg i.p., or p.o., respectively), administered under the same experimental conditions, was used as reference substance. Immobility and swimming time were assessed.

T1 sequence (P23975 whole entry): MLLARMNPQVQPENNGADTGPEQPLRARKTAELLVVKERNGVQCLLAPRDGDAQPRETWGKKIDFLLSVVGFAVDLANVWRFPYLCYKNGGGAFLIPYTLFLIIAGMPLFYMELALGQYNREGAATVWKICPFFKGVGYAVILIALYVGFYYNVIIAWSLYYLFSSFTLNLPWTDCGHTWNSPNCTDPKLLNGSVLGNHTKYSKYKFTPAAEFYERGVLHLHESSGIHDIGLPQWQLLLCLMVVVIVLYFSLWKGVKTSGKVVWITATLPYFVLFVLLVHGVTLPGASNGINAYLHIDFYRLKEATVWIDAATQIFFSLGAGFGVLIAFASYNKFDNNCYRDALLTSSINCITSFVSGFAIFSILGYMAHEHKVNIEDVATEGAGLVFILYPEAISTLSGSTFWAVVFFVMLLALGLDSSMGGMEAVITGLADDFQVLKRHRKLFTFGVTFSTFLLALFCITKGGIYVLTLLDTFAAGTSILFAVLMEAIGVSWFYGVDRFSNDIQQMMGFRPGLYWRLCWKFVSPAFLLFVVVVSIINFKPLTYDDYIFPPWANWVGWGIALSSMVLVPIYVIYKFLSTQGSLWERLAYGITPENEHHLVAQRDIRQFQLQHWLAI

In the case of `CC(C)c1cc2c(c(O)c1O)[C@@]13CCCC(C)(C)[C@@H]1C[C@@H]2OC3=O` [Carnosol, carnosol], the IC50 [1] is reported as 30.6 µM, the “Number of marbles buried (% change from control)” value (from here on “Number … (% change from control)”) (mouse [2]; 3 mg/kg i.p.) is reported as −12% and the “Number … (% change from control)” value (mouse [2]; 10 mg/kg i.p.) is reported as −10%. The “Number … (% change from control)” value (mouse [2]; 30 mg/kg i.p.) was −41%, the IC50 [3] was 10.3 µM and the IC50 ([4]; read-out: IC50 for tritiated glycine uptake) was 29.3 µM. For the same compound, the “Duration of immobility (% change from control)” value (mouse [5]; 3 mg/kg i.p., −30 min) was −26%, the “Duration of immobility (% change from control)” value (mouse [5]; 10 mg/kg i.p., −30 min) was −21% and the “Duration of immobility (% change from control)” value (mouse [5]; 30 mg/kg i.p., −30 min) was −18%. The “Duration of immobility (% change from control)” value (mouse [5]; 200 mg/kg p.o., −24, −5, −1 h) was −9%, the “Duration of immobility (% change from control)” value (mouse [5]; 400 mg/kg p.o., −24, −5, −1 h) was −53% and the “Duration of immobility (% change from control)” value (mouse [5]; 600 mg/kg p.o., −24, −5, −1 h) was −3%.

For `CC(C)c1cc2c(c(O)c1O)[C@@]13CCCC(C)(C)[C@@H]1[C@H](OC3=O)[C@H]2O` [Rosmanol, rosmanol], the “Number … (% change from control)” value (mouse [2]; 10 mg/kg i.p.) was −21%, the “Number … (% change from control)” value (mouse [2]; 30 mg/kg i.p.) was −12% and the “Number … (% change from control)” value (mouse [2]; 100 mg/kg i.p.) was −55%. The “IC50 for tritiated glycine uptake (result in words)” value [4] was “inactive”.
